From US7473790B2 (Pfizer Inc., priority 2003, dated 2009)

Molecular target: T1, HCV polymerase (Hepatitis C virus genotype 1b, UniProt P26663)
T1 construct: 2.5 pmoles (0.15 μg) HCV polymerase protein in a final volume of 75 μL
Experiment: HCV polymerase primer/template-directed transcription assay (32P-GTP incorporation, filter binding)
Type: biochemical
Conditions: for IC50: recombinant HCV polymerase, 30 minutes at 30° C., concentration giving 50% inhibition of polymerase-directed transcription, read-out: IC50
Outline: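 IC50s come from triplicate cpm, refit with an enzyme-concentration (30 nM) correction when under 200 nM. Reactions ran 30 min at 30° C in Tris pH 7.2 with MgCl2, 1 μM GTP spiked with α-32P-GTP, biotin-dG12 primer and poly(rC)300 template, with 1% DMSO. Incorporated label was collected on DE filtermats and counted.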

T1 sequence (P26663 2420-3010): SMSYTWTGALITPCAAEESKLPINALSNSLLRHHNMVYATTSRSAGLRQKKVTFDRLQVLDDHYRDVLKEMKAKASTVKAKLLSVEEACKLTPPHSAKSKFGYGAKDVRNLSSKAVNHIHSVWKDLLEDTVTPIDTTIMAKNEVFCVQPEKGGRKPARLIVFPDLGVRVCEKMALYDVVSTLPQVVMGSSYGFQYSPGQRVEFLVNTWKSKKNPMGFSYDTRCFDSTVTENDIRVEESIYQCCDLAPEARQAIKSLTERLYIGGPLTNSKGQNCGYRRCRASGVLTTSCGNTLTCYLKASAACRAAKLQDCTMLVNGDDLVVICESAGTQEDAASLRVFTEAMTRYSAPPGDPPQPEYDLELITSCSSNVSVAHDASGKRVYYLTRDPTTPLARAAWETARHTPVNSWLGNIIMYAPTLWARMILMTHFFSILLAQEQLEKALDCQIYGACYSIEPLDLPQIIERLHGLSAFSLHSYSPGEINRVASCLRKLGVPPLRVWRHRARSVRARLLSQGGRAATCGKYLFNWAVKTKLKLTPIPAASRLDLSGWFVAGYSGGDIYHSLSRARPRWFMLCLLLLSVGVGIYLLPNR

Row | SMILES | IC50 [µM] | inhibition at 20 µM (@ 20 uM compound, given where IC50 was impractical to calculate, read-out: percent inhibition) [%]
1 | Cn1c(CC2=C(O)CC(CCc3ccc(OCC4CC4)c(Cl)c3)(C3CCCC3)OC2=O)nc2ccccc21 (centres unmarked) [B(26), 6-[2-(3-Chloro-4-cyclopropylmethoxy-phenyl)-ethyl]-6-cyclopentyl-4-hydroxy-3-(1-methyl-1H-benzoimidazol-2-ylmethyl)-5,6-dihydro-pyran-2-one] | 2.3 | –
2 | CC(C)Oc1ccc(CCC2(C3CCCC3)CC(O)=C(Cc3nc4ccccc4n3C)C(=O)O2)cc1Cl (centres unmarked) [B(27), 6-[2-(3-Chloro-4-isopropoxy-phenyl)-ethyl]-6-cyclopentyl-4-hydroxy-3-(1-methyl-1H-benzoimidazol-2-ylmethyl)-5,6-dihydro-pyran-2-one] | – | 47
3 | Cc1cc(C)n2nc(CC3=C(O)CC(CCc4ccc(OCC5CC5)c(Cl)c4)(C4CCCC4)OC3=O)nc2n1 (centres unmarked) [B(28), 6-[2-(3-Chloro-4-cyclopropylmethoxy-phenyl)-ethyl]-6-cyclopentyl-3-(5,7-dimethyl-[1,2,4]triazolo[1,5-a]pyrimidin-2-ylmethyl)-4-hydroxy-5,6-dihydro-pyran-2-one] | 0.011 | –
4 | COc1ccc(CCC2(C3CCCC3)CC(O)=C(Cc3nn(C)cc3Cl)C(=O)O2)cc1Cl (centres unmarked) [B(29), 6-[2-(3-Chloro-4-methoxy-phenyl)-ethyl]-3-(4-chloro-1-methyl-1H-pyrazol-3-ylmethyl)-6-cyclopentyl-4-hydroxy-5,6-dihydro-pyran-2-one] | 0.22 | –
5 | COc1ccc(CCC2(C3CCCC3)CC(O)=C(Cc3ncc[nH]3)C(=O)O2)cc1Cl (centres unmarked) [B(30), 6-[2-(3-Chloro-4-methoxy-phenyl)-ethyl]-6-cyclopentyl-4-hydroxy-3-(1H-imidazol-2-ylmethyl)-5,6-dihydro-pyran-2-one] | 2 | –
6 | Cc1cc(C)n2nc(CC3=C(O)CC(CCc4ccc(OC(C)C)c(Cl)c4)(C4CCCC4)OC3=O)nc2n1 (centres unmarked) [B(31), 6-[2-(3-Chloro-4-isopropoxy-phenyl)-ethyl]-6-cyclopentyl-3-(5,7-dimethyl-[1,2,4]triazolo[1,5-a]pyrimidin-2-ylmethyl)-4-hydroxy-5,6-dihydro-pyran-2-one] | 0.003 | –
7 | COc1cc(OC)c(CCC2(C3CCCC3)CC(O)=C(Cc3nn(C)cc3Cl)C(=O)O2)cc1Cl (centres unmarked) [B(32), 6-[2-(5-Chloro-2,4-dimethoxy-phenyl)-ethyl]-3-(4-chloro-1-methyl-1H-pyrazol-3-ylmethyl)-6-cyclopentyl-4-hydroxy-5,6-dihydro-pyran-2-one] | 0.07 | –
8 | Cc1cc(C)n2nc(CC3=C(O)CC(CCc4ccc(OCC5CC5)c(F)c4)(C4CCCC4)OC3=O)nc2n1 (centres unmarked) [B(33), 6-Cyclopentyl-6-[2-(4-cyclopropylmethoxy-3-fluoro-phenyl)-ethyl]-3-(5,7-dimethyl-[1,2,4]triazolo[1,5-a]pyrimidin-2-ylmethyl)-4-hydroxy-5,6-dihydro-pyran-2-one] | 0.136 | –
9 | Cc1cc(C)n2nc(CC3=C(O)CC(CCc4ccc(OC(C)C)cc4)(C4CCCC4)OC3=O)nc2n1 (centres unmarked) [B(34)] | 0.03 | –
10 | COc1cc(OC)c(CCC2(C3CCCC3)CC(O)=C(Cc3c[nH]c(C)n3)C(=O)O2)cc1Cl (centres unmarked) [B(35), 6-[2-(5-Chloro-2,4-dimethoxy-phenyl)-ethyl]-6-cyclopentyl-4-hydroxy-3-(2-methyl-1H-imidazol-4-ylmethyl)-5,6-dihydro-pyran-2-one] | 0.07 | –
11 | Cc1cc(C)n2nc(CC3=C(O)CC(CCc4ccc5c(c4)OCCO5)(C4CCCC4)OC3=O)nc2n1 (centres unmarked) [B(36), 6-Cyclopentyl-6-[2-(2,3-dihydro-benzo[1,4]dioxin-6-yl)-ethyl]-3-(5,7-dimethyl-[1,2,4]triazolo[1,5-a]pyrimidin-2-ylmethyl)-4-hydroxy-5,6-dihydro-pyran-2-one] | 0.042 | –
12 | CCOc1c(Cl)cc(CCC2(C3CCCC3)CC(O)=C(Cc3nc4nc(C)cc(C)n4n3)C(=O)O2)cc1Cl (centres unmarked) [B(37), 6-Cyclopentyl-6-[2-(3,5-dichloro-4-ethoxy-phenyl)-ethyl]-3-(5,7-dimethyl-[1,2,4]triazolo[1,5-a]pyrimidin-2-ylmethyl)-4-hydroxy-5,6-dihydro-pyran-2-one] | 0.008 | –
13 | Cc1cc(C)n2nc(CC3=C(O)CC(CCc4ccc(Cl)c(Cl)c4)(C4CCCC4)OC3=O)nc2n1 (centres unmarked) [B(38), 6-Cyclopentyl-6-[2-(3,4-dichloro-phenyl)-ethyl]-3-(5,7-dimethyl-[1,2,4]triazolo[1,5-a]pyrimidin-2-ylmethyl)-4-hydroxy-5,6-dihydro-pyran-2-one] | 0.021 | –
14 | Cc1cc(C)n2nc(CC3=C(O)CC(CCCCC4CCCCC4)(C4CCCC4)OC3=O)nc2n1 (centres unmarked) [B(39), 6-(4-Cyclohexyl-butyl)-6-cyclopentyl-3-(5,7-dimethyl-[1,2,4]triazolo[1,5-a]pyrimidin-2-ylmethyl)-4-hydroxy-5,6-dihydro-pyran-2-one] | 0.029 | –
15 | Cc1cc(C)n2nc(CC3=C(O)CC(CCc4ccc5c(c4)OC(F)(F)C(F)(F)O5)(C4CCCC4)OC3=O)nc2n1 (centres unmarked) [B(40), 6-Cyclopentyl-3-(5,7-dimethyl-[1,2,4]triazolo[1,5-a]pyrimidin-2-ylmethyl)-4-hydroxy-6-[2-(2,2,3,3-tetrafluoro-2,3-dihydro-benzo[1,4]dioxin-6-yl)-ethyl]-5,6-dihydro-pyran-2-one] | 0.014 | –
16 | CCCOc1ccc(CCC2(C3CCCC3)CC(O)=C(Cc3nc4nc(C)cc(C)n4n3)C(=O)O2)cc1 (centres unmarked) [B(41), 6-Cyclopentyl-3-(5,7-dimethyl-[1,2,4]triazolo[1,5-a]pyrimidin-2-ylmethyl)-4-hydroxy-6-[2-(4-propoxy-phenyl)-ethyl]-5,6-dihydro-pyran-2-one] | 0.12 | –
17 | Cc1cc(C)n2nc(CC3=C(O)CC(CCc4ccc(OCc5c(C)noc5C)cc4)(C4CCCC4)OC3=O)nc2n1 (centres unmarked) [B(42), 6-Cyclopentyl-6-{2-[4-(3,5-dimethyl-isoxazol-4-ylmethoxy)-phenyl]-ethyl}-3-(5,7-dimethyl-[1,2,4]triazolo[1,5-a]pyrimidin-2-ylmethyl)-4-hydroxy-5,6-dihydro-pyran-2-one] | 0.21 | –
18 | COc1ccc(CCC2(C3CCCC3)CC(O)=C(Cc3nc4cc(Cl)ccc4n3C)C(=O)O2)cc1Cl (centres unmarked) [B(43), 6-[2-(3-chloro-4-methoxyphenyl)ethyl]-3-[(5-chloro-1-methyl-1H-benzimidazol-2-yl)methyl]-6-cyclopentyl-4-hydroxy-5,6-dihydro-2H-pyran-2-one] | 0.36 | –
19 | Cc1cc(C)n2nc(CC3=C(O)CC(CCc4ccc(C(C)C)c(Cl)c4)(C4CCCC4)OC3=O)nc2n1 (centres unmarked) [B(44), 6-[2-(3-chloro-4-isopropylphenyl)ethyl]-6-cyclopentyl-3-[(5,7-dimethyl[1,2,4]triazolo[1,5-a]pyrimidin-2-yl)methyl]-4-hydroxy-5,6-dihydro-2H-pyran-2-one] | 0.053 | –
20 | Cc1cc(C)n2nc(CC3=C(O)CC(CCc4ccc(C(C)C)c(F)c4)(C4CCCC4)OC3=O)nc2n1 (centres unmarked) [B(45), 6-cyclopentyl-3-[(5,7-dimethyl[1,2,4]triazolo[1,5-a]pyrimidin-2-yl)methyl]-6-[2-(3-fluoro-4-isopropylphenyl)ethyl]-4-hydroxy-5,6-dihydro-2H-pyran-2-one] | 0.053 | –
21 | CCc1cc(CCC2(C3CCCC3)CC(=O)C(Cc3nc4nc(C)cc(C)n4n3)C(=O)O2)ccc1F (centres unmarked) [B(46), 6-cyclopentyl-3-[(5,7-dimethyl[1,2,4]triazolo[1,5-a]pyrimidin-2-yl)methyl]-6-[2-(3-ethyl-4-fluorophenyl)ethyl]dihydro-2H-pyran-2,4(3H)-dione] | 0.02 | –
22 | COc1ccc(CCC2(C3CCCC3)CC(=O)C(Cc3nccs3)C(=O)O2)cc1Cl (centres unmarked) [B(47), 6-[2-(3-chloro-4-methoxyphenyl)ethyl]-6-cyclopentyl-3-(1,3-thiazol-2-ylmethyl)dihydro-2H-pyran-2,4(3H)-dione] | 0.8 | –
23 | COc1ccc(CCC2(C3CCCC3)CC(=O)C(Cc3nccn3C)C(=O)O2)cc1Cl (centres unmarked) [B(48), 6-[2-(3-chloro-4-methoxyphenyl)ethyl]-6-cyclopentyl-3-[(1-methyl-1H-imidazol-2-yl)methyl]dihydro-2H-pyran-2,4(3H)-dione] | 0.7 | –
24 | Cc1cc(C)n2nc(CC3C(=O)CC(CCc4cccc(C(C)C)c4)(C4CCCC4)OC3=O)nc2n1 (centres unmarked) [B(49), 6-cyclopentyl-3-[(5,7-dimethyl[1,2,4]triazolo[1,5-a]pyrimidin-2-yl)methyl]-6-[2-(3-isopropylphenyl)ethyl]dihydro-2H-pyran-2,4(3H)-dione] | 0.01 | –
25 | Cc1cc(C)n2nc(CC3C(=O)CC(CCc4ccc(C(C)C)cc4)(C4CCCC4)OC3=O)nc2n1 (centres unmarked) [B(50), 6-cyclopentyl-3-[(5,7-dimethyl[1,2,4]triazolo[1,5-a]pyrimidin-2-yl)methyl]-6-[2-(4-isopropylphenyl)ethyl]dihydro-2H-pyran-2,4(3H)-dione] | 0.09 | –
26 | Cc1cc(C)n2nc(CC3C(=O)CC(CCc4cccc(Cl)c4)(C4CCCC4)OC3=O)nc2n1 (centres unmarked) [B(51), 6-[2-(3-chlorophenyl)ethyl]-6-cyclopentyl-3-[(5,7-dimethyl[1,2,4]triazolo[1,5-a]pyrimidin-2-yl)methyl]dihydro-2H-pyran-2,4(3H)-dione] | 0.072 | –
27 | COc1cc(OC)c(CCC2(C3CCCC3)CC(O)=C(Cc3nc4nc(C)cc(C)n4n3)C(=O)O2)cc1Cl (centres unmarked) [B(52), 6-[2-(5-chloro-2,4-dimethoxyphenyl)ethyl]-6-cyclopentyl-3-[(5,7-dimethyl[1,2,4]triazolo[1,5-a]pyrimidin-2-yl)methyl]dihydro-2H-pyran-2,4(3H)-dione] | 0.17 | –
28 | COc1ccc(CCC2(C3CCCC3)CC(O)=C(Cc3nc(C)nn3C)C(=O)O2)cc1Cl (centres unmarked) [B(53), 6-[2-(Chloro-4-methoxyphenyl)ethyl]-6-cyclopentyl-3-[(1,3-dimethyl-1H-1,2,4-triazol-5-yl)methyl]-4-hydroxy-5,6-dihydro-2H-pyran-2-one] | 0.35 | –
29 | COc1ccc(CCC2(C3CCCC3)CC(O)=C(Cc3nc(C)cc(=O)[nH]3)C(=O)O2)cc1Cl (centres unmarked) [B(54), 2-({6-[-(3-chloro-4-methoxyphenyl)ethyl]-6-cyclopentyl-4-hydroxy-2-oxo-5,6-dihydro-2H-pyran-3-yl}methyl)-6-methylpyrimidin-4(3H)-one] | 0.3 | –
